Assay results published in paper PMC12567096, “An Efficacy- and In Vivo Exposure-Oriented Integrated Study to Investigate the Effective Components of Qishen Granule” (Pharmaceuticals, 2025).

Tests used:
OGD/R-induced H9c2 cells = test: Protective effect on OGD/R-induced H9c2 cells (CCK-8 cell viability); assay type: cell-based, rat; conditions: for H9c2 cell survival after OGD/R (in words): 1, 10, 25, 50 and 100 μM prior to OGD/R, vs model group; for EC50: Rattus norvegicus, protective effect against OGD/R injury, H9c2 cell viability
Procedure: (§1) Rat myocardial H9c2 cells (purchased from China Infrastructure of Cell Line Resources, Institute of Basic Medical Sciences, Chinese Academy of Medical Sciences) were cultured in DMEM supplemented with 10% fetal bovine serum (FBS), Penicillin (100 U/mL), and Streptomycin (100 μg/mL) at 37 °C under a humidified atmosphere of 5% CO2 and 95% air. For OGD/R treatment, H9c2 cells were cultured in glucose-free DMEM under hypoxic conditions (95%N2 + 5%CO2) for 4 h at 37 °C followed by complete medium under normal conditions with air (95%) and CO2 (5%) for 2 h. A control group was maintained under normal culture conditions (with glucose-containing DMEM and 5% CO2) without undergoing OGD/R treatment. CCK8 was used to assess cell viability. After treatment, H9c2 cells were seeded in 96-well plates, with each well supplemented with 10 μL of CCK-8 solution and then incubated for 1 h. Finally, the absorbance at 450 nm was detected by a microplate reader (Model […] 200 PRO, TECAN, Grodig, Austria).
(§2) When evaluating the cytotoxicities of the absorbed compounds, the H9c2 cells were seeded in 96-well plates at a density of 1 × 10^4 cells/well; when cells reached 80% confluence, they were treated with 25 and 50 μM of the 24 analytes to screen the non-toxic concentration ranges. Afterward, the protective effects were verified by assessing the cell viability when treating with different concentrations (1, 10, 25, 50, and 100 μM) of the analytes prior to OGD/R treatment.

[1] = Pharmacokinetic study in rats after oral administration of QSG; conditions: for AUCi: exposure (AUC0→∞) of the component in rats after oral QSG, as used for ECI; for Oral relative bioavailability: exposure level (AUC0→∞) compared with the dosage of each compound in QSG; for Absorption efficiency / bioavailability (in words): from Table S12, rats; for AUC(0-inf): AUC0→∞
Procedure: Ion source parameters were set as follows: temperatures of drying gas and sheath gas were 300 °C and 300 °C, flow rates of drying gas and sheath gas were 7 L/min and 11 L/min, the nebulizer was set at 35 psig, capillary voltage was 3500 V (−), and nozzle voltage was 2000 V (−). […] Chromatographic separations were conducted on a ZORBAX Eclipse Plus C18 column (3.0 × 50 mm, 1.8 μm, Agilent Technologies, California, USA). The mobile phase was composed of 0.1% aqueous FA (A, (v/v)) and 0.1% formic acid methanol (B), the flow rate was set at 0.5 mL/min, and the column oven was maintained at 40 °C.
Protein precipitation was carried out for each time point for plasma samples, calibration samples, or QC samples by introducing four volumes of acetonitrile containing 400 ng/mL of icariin. Then, 10 μL 10% aqueous ascorbic acid (v/v) was spiked into each sample to prevent the oxidation of phenolic compounds. […] An aliquot (450 μL) of the supernatant was transferred and dried under nitrogen vacuum.
The pharmacokinetic parameters were calculated by DAS software (version 2.0) for a non-compartmental analysis.

H9c2 cells = test: Cytotoxicity on H9c2 cells (CCK-8); assay type: cell-based, rat; conditions: for Inhibition rate / inhibition at 25 µM / inhibition at 50 µM / inhibition at 100 µM: H9c2 cells, n=3; for inhibition at 25 µM / inhibition at 50 µM / inhibition at 100 µM: Rattus norvegicus, read-out: Inhibition rate
Procedure: as §1
as §2, with “they were treated with 25 and 50 μM of the 24 analytes to screen the non-toxic concentration ranges.” left out

[2] = Concentrations of 24 analytes in QSG treated plasma (Table S5); conditions: for Concentration: QSG treated plasma, n = 5; for concentration at 0.08 h / concentration at 0.17 h / concentration at 0.5 h / concentration at 1 h / concentration at 2 h / concentration at 4 h / concentration at 8 h / concentration at 12 h: Sprague Dawley, rat, plasma, oral, 7 g/kg
[3] = rat plasma, single oral 7 g/kg QSG, n = 6
[4] = Sprague Dawley, rat, plasma, po, 7 g/kg
[5] = Sprague Dawley, rat, plasma, po, 7 g/kg, rat plasma, single oral 7 g/kg QSG, n = 6

Compound: CC(C)(O)[C@@H]1CC[C@](C)([C@H]2[C@@H](O)C[C@@]3(C)[C@@H]4C[C@H](O[C@@H]5O[C@H](CO)[C@@H](O)[C@H](O)[C@H]5O)[C@H]5C(C)(C)[C@@H](O[C@@H]6OC[C@@H](O)[C@H](O)[C@H]6O)CC[C@@]56C[C@@]46CC[C@]23C)O1 [Astragaloside IV]
- H9c2 cell survival after OGD/R (in words) (OGD/R-induced H9c2 cells): significantly improve H9c2 cell survival rates
- Protective effects on OGD/R-induced H9c2 cells (in words) (OGD/R-induced H9c2 cells; at 50 and 100 μM): significant protective effects
- AUC0→∞ ([1]; Table S12, rats, oral QSG): 144.9 ng·h/mL
- AUCi [1]: 144.9
- Oral relative bioavailability [1]: 0.107%
- Absorption efficiency / bioavailability (in words) ([1]; oral QSG): relatively higher absorption efficiency
- AUC0→t [1, 3]: 55.94 ± 26.16 ng·h/mL
- AUC0→∞ [1, 3]: 144.9 ± 101.2 ng·h/mL
- Cmax [1, 3]: 12.06 ± 2.010 ng/mL
- MRT [1, 3]: 6.104 ± 3.716 h
- T1/2 [1, 3]: 14.87 ± 9.060 h
- Tmax [1, 3]: 0.250 ± 0.0920 h
- Shape of the plasma concentration–time curve (in words) ([1]; rats, oral QSG): Double peaks
- Inhibition rate (H9c2 cells; 25 μM): -6.7 ± 7.1%
- Inhibition rate (H9c2 cells; 50 μM): 7.0 ± 2.1%
- Inhibition rate (H9c2 cells; 100 μM): 15.0 ± 2.3%
- Concentration ([2]; 0.17 h): 7.10 ± 5.941 ng/mL
- Concentration ([2]; 0.5 h): 8.655 ± 2.757 ng/mL
- Concentration ([2]; 1 h): 3.017 ± 3.507 ng/mL
- Concentration ([2]; 2 h): 3.783 ± 2.015 ng/mL
- Concentration ([2]; 4 h): 0.710 ± 1.991 ng/mL
- Concentration ([2]; 8 h): 1.337 ± 1.728 ng/mL
- Concentration ([2]; 12 h): 2.200 ± 2.015 ng/mL

Compound: O=C(/C=C/c1ccc(O)c(O)c1)O[C@@H]1C[C@](O)(C(=O)O)C[C@@H](O)[C@H]1O [Chlorogenic acid]
- H9c2 cell survival after OGD/R (in words) (OGD/R-induced H9c2 cells): significantly improve H9c2 cell survival rates
- EC50 (OGD/R-induced H9c2 cells): 8.6 µM
- AUC [1, 4]: 1420 ng·h/mL
- MRT [1, 4]: 7.18 ± 0.978 h
- Tmax [1, 4]: 0.563 ± 0.125 h
- half-life [1, 4]: 9.22 ± 3.27 h
- AUC(0-inf) [1, 5]: 1420 ± 243 ng·h/mL
- AUC0→t [1, 3]: 1278 ± 171.4 ng·h/mL
- Cmax [1, 3]: 394.1 ± 6.271 ng/mL
- inhibition at 25 µM (H9c2 cells; 25 μM): -1.6 ± 4.9%
- inhibition at 50 µM (H9c2 cells; 50 μM): 12 ± 1.7%
- inhibition at 100 µM (H9c2 cells; 100 μM): 15 ± 4.1%
- concentration at 0.08 h [2]: 66.2 ± 20.1 ng/mL
- concentration at 0.17 h [2]: 99.06 ± 0.162 ng/mL
- concentration at 0.5 h [2]: 395 ± 7.1 ng/mL
- concentration at 1 h [2]: 170 ± 35.7 ng/mL
- concentration at 2 h [2]: 77.2 ± 7.26 ng/mL
- concentration at 4 h [2]: 68.1 ± 21 ng/mL
- concentration at 8 h [2]: 51.4 ± 5.49 ng/mL
- concentration at 12 h [2]: 39.1 ± 14.9 ng/mL

Compound: O=C(/C=C/c1ccc(O)cc1)c1ccc(O)cc1O [Isoliquiritigenin]
- H9c2 cell survival after OGD/R (in words) (OGD/R-induced H9c2 cells): significantly improve H9c2 cell survival rates
- EC50 (OGD/R-induced H9c2 cells): 10.3 µM
- AUC [1, 4]: 4.89 ng·h/mL
- AUC(0-t) [1, 4]: 3.17 ± 0.843 ng·h/mL
- Cmax [1, 4]: 1.65 ± 0.585 ng/mL
- MRT [1, 4]: 7.68 ± 2.17 h
- Tmax [1, 4]: 0.17 h
- half-life [1, 4]: 12.4 ± 10.5 h
- AUC(0-inf) ([1]; Sprague Dawley, rat, plasma, po, 7 g/kg, Table S12, rats, oral QSG): 4.89 ng·h/mL
- AUC(0-inf) [1, 5]: 4.89 ± 2.77 ng·h/mL
- Shape of the plasma concentration–time curve (in words) ([1]; rats, oral QSG): Double peaks
- inhibition at 25 µM (H9c2 cells; 25 μM): -14.9 ± 9.3%
- inhibition at 50 µM (H9c2 cells; 50 μM): -1.2 ± 7.6%
- inhibition at 100 µM (H9c2 cells; 100 μM): 7.2 ± 4.2%
- concentration at 0.08 h [2]: 0.69 ± 0.227 ng/mL
- concentration at 0.17 h [2]: 1.65 ± 0.585 ng/mL
- concentration at 0.5 h [2]: 0.454 ± 0.151 ng/mL
- concentration at 1 h [2]: 0.355 ± 0.17 ng/mL
- concentration at 2 h [2]: 0.179 ± 0.041 ng/mL
- concentration at 4 h [2]: 0.231 ± 0.054 ng/mL
- concentration at 8 h [2]: 0.053 ± 0.038 ng/mL
- concentration at 12 h [2]: 0.124 ± 0.092 ng/mL

Compound: Salvianolic acid B
- H9c2 cell survival after OGD/R (in words) (OGD/R-induced H9c2 cells): significantly improve H9c2 cell survival rates
- AUC0→∞ ([1]; Table S12, rats, oral QSG): 2176 ng·h/mL
- AUCi [1]: 2176
- Oral relative bioavailability [1]: 0.013%
- Absorption efficiency / bioavailability (in words) ([1]; oral QSG): much lower than most compounds
- AUC0→t [1, 3]: 1475 ± 187.4 ng·h/mL
- AUC0→∞ [1, 3]: 2176 ± 842.3 ng·h/mL
- Cmax [1, 3]: 205.3 ± 65.50 ng/mL
- MRT [1, 3]: 11.08 ± 1.809 h
- T1/2 [1, 3]: 10.83 ± 5.740 h
- Tmax [1, 3]: 0.566 ± 0.182 h
- MRT ([1]; rat plasma, single oral 7 g/kg QSG, n = 6, listed as salvianolic acid B): more than 10 h
- Shape of the plasma concentration–time curve (in words) ([1]; rats, oral QSG): Double peaks
- Share of the total exposures (AUC0→∞) of all analytes ([1]; rats, oral QSG, 11 analytes): 43.48%
- Inhibition rate (H9c2 cells; 25 μM): -38.9 ± 5.2%
- Inhibition rate (H9c2 cells; 50 μM): -17.1 ± 7.2%
- Inhibition rate (H9c2 cells; 100 μM): 0.1 ± 3.2%
- Effect on H9c2 cell viability / cytotoxicity (in words) (H9c2 cells; CCK-8, compared to the control group): significantly enhanced cell viabilities
- Concentration ([2]; 0.08 h): 68.337 ± 49.223 ng/mL
- Concentration ([2]; 0.17 h): 115.490 ± 60.235 ng/mL
- Concentration ([2]; 0.5 h): 174.763 ± 84.875 ng/mL
- Concentration ([2]; 1 h): 83.989 ± 21.934 ng/mL
- Concentration ([2]; 2 h): 47.989 ± 9.996 ng/mL
- Concentration ([2]; 4 h): 34.225 ± 16.349 ng/mL
- Concentration ([2]; 8 h): 91.217 ± 8.136 ng/mL
- Concentration ([2]; 12 h): 56.609 ± 10.151 ng/mL
